Assay results from patent US12227895B2, “Odor reduction and bacterial control on a textile material” (Microban Products Company, priority 2019, dated 2025).
Read-outs that look alike come from different tables or passages of the source.

What was measured:
bacteria = settings: for efficacy after home launderings: after 25 home launderings (FIG. 3); for efficacy (AATCC TM100): salts only, zero home launderings, liquor pH not lowered (FIG. 1)
Kp = settings: Polyester Fabric, Mathis JFO Exhaust
Protocol: High dye load samples are the most difficult to process using exhaustion dye techniques. A series of tests were run using PET (polyester) and polyspandex fabrics. In this test series the materials were tested in two different laboratories using container-style lab exhaust equipment. Alongside the treated samples, untreated fabrics were run for comparison.
The fabrics were tested as-made and after 25 home launderings (25 HL). Each home laundering was performed in a commercial front-load washing machine per AATCC Monograph M6 using Tide HE detergent.
Trials have been performed in a small Thiele exhaustion pilot unit, as well as in Mathis JFO pilot scale equipment, both of which use jets to forcibly impregnate the textile with the exhaust liquor.
Reductive Clears—Method A is 1% Na Hydrosulfite whereas Method B is 0.3% NaOH, 0.4% Na Hydrosulfite. “owg” is “on weight of goods”.

Row | SMILES | efficacy after home launderings (bacteria) | efficacy (AATCC TM100) (bacteria) | also measured
1 | O=C(O)CC(O)(CC(=O)O)C(=O)O [Citric acid, citric acid] | not able to maintain efficacy |  | 
2 | C/C=C/C=C/C(=O)[O-].[K+] [potassium sorbate, reference compound] |  | relatively low levels of efficacy | 
3 | O=C([O-])c1ccccc1.[Na+] [sodium benzoate] |  | relatively low levels of efficacy | Percent reduction (Kp; 0 HL, sodium benzoate acidified with citric acid to pH<3.6, run as Example 4): 99.50%; Percent reduction (Kp; 25 HL, sodium benzoate acidified with citric acid to pH<3.6): 99.50%
4 | C/C=C/C=C/C(=O)O [sorbic acid] | able to maintain efficacy following multiple washing cycles |  | efficacy after a reductive clear (bacteria; exhausted on polyester fabric, 0 HL (FIG. 4)): demonstrate efficacy after the reductive clear
5 | O=C([O-])CC(O)(CC(=O)[O-])C(=O)[O-].[Na+].[Na+].[Na+] [trisodium citrate, reference compound] |  | relatively low levels of efficacy | 
